Patent US11753411B2, “Substituted pyrazolo[1,5-a]pyrimidines as TYK2 pseudokinase ligands” (Ventyx Biosciences, Inc., priority 2019, dated 2023)

Assays:
Hepatocyte stability = type: in vitro ADME, human; conditions: for half-life at 1 μM: human, Table 3 of Example 15: 1 μM test compound, 0.5 million cells/mL hepatocytes, 37° C.
Protocol: Metabolic stability of compounds can be evaluated using human, rat, mouse, or other animal hepatocytes to predict intrinsic clearance. Human LiverPool™ 20-donor and animal cryopreserved hepatocytes were obtained from BioreclamationIVT.
Cryopreserved hepatocytes were removed from a liquid nitrogen tank and thawed in a 37° C. water bath. As soon as the cells pull away from the vial wall, they were decanted into 48 mL of warm HT medium. Cells were centrifuged for four minutes at 420 rpm (50 g). After removing the supernatant, the pellet was re-suspended in warm DMEM medium. Cell density was counted by a hemacytometer.
The assay was carried out in 96-well microtiter plates. Compound 5 was incubated for 0, 60, 120, and 180 minutes at 37° C. with hepatocytes. Reaction mixtures (50 μL) contain a final concentration of 1 μM test compound, 0.5 million cells/mL hepatocytes in the DMEM medium. At each of the time points (for example, 0, 1, 2, and 3 hours), 200 μL of quench solution (100% acetonitrile with 0.1% formic acid) with internal standard was transferred to each well. Midazolam was included as a positive control to verify assay performance. Plates were sealed and centrifuged at 4° C. for 15 minutes at 4000 rpm. The supernatant was transferred to fresh plates for LC/MS/MS analysis.
All samples were analyzed on LC/MS/MS using an AB Sciex API 4000 instrument, coupled to a Shimadzu LC-20AD LC Pump system. Analytical samples were separated using a Waters Atlantis T3 dC18 reverse phase HPLC column (20 mm×2.1 mm) at a flow rate of […]. The mobile phase consists of 0.1% formic acid in water (solvent A) and 0.1% formic acid in 100% acetonitrile (solvent B).
The extent of metabolism was calculated as the disappearance of the test compound, compared to the 0-min control reaction incubations. Initial rates are calculated for the compound concentration and used to determine t½ values and subsequently, the intrinsic clearance, CLint=(0.693)(1/t½ (min))(mL incubation/million cells).

IFN-a/Jak1 Tyk2 = test: Co-stimulation assay in lysed whole blood: IFNa (JAK1/TYK2) stimulated STAT1 phosphorylation; type: cell-based; conditions: Homo sapiens, 20 min, 100 ng/mL IFNa (with 10 ng/mL GM-CSF), pSTAT by flow cytometry
Method in brief: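 Lysed human whole blood (RBC-lysed, resuspended in cRPMI) pre-incubated with compound 1 h at 37 °C, then stimulated 20 min with IFNa 100 ng/mL plus GM-CSF 10 ng/mL (final). Fixed, permeabilised, stained for pSTAT1 (PE) and pSTAT5 (AF488); flow cytometry read-out, ≥5,000–10,000 cells acquired.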

Row | half-life at 1 μM (Hepatocyte stability) [h] | IC50 (IFN-a/Jak1 Tyk2) [nM] | metabolic stability compared to the corresponding amide compound (Hepatocyte stability; hepatocytes, statement in words) | Compound
1 | < 1.67 | – | – | CNc1cc(Nc2cc(F)cc3c2OCCO3)nc2c(C(=O)N[C@@H]3C[C@@H]3F)cnn12 [drawing 294, reference compound]
2 | – | < 1000 | unexpected high metabolic stability | CNc1cc(Nc2cc(F)cc3c2OCCO3)nc2c(NC(=O)N[C@@H]3C[C@@H]3F)cnn12 [Compound 5, 1-(5-((7-fluoro-2,3-dihydrobenzo[b][1,4]dioxin-5-yl)amino)-7-(methylamino)pyrazolo[1,5-a]pyrimidin-3-yl)-3-((1R,2S)-2-fluorocyclopropyl)urea]
3 | > 6 | – | – | CNc1cc(Nc2cc(F)cc3c2OCCO3)nc2c(NC(=O)N[C@@H]3C[C@@H]3F)cnn12 [drawing 293]
